Experimental data published in the NIST ThermoML archive (doi:10.1016/j.tca.2011.12.010).
Numbers after ± are expanded uncertainties.

Conditions: DTA

O=[N+]([O-])[O-].O=[N+]([O-])[O-].O=[N+]([O-])[O-].O=[N+]([O-])[O-].[K+].[K+].[Mg+2] [bis-potassium magnesium nitrate]
Triple point temperature (Crystal 1): 468.85 ± 0.5 K | Triple point temperature (Crystal 2): 404.8 ± 0.5 K
